Test results taken from US11149135B2, “Application of cyclodextrins (CDS) for remediation of perfluoroalkyl substances (PFASS)” (THE FLORIDA INTERNATIONAL UNIVERSITY BOARD OF TRUSTEES, priority 2017, dated 2021).

What was measured:
[1] = 19F NMR association constants of β-CD:legacy PFAS complexes; assay type: binding; conditions: aqueous media, room temperature
Protocol: A detailed comprehensive Nuclear Magnetic Resonance (NMR) spectral study of the complexation of PFASs to β-CD was conducted, Weiss-Errico and O'Shea, J. Hazardous Mat. 2017 329, 57-65, with highlights herein. […] Competition studies with adamantane-carboxylic acid and phenol confirmed the persistence of the β-CD:PFAS complex. The aqueous solution pH, ionic strength, and the presence of humic acid have only a modest influence on the β-CD:PFAS complexes. Table 2 gives the association constants for β-CD complexes with a sample of the PFASs studied, including perfluoroheptanoic acid (PFHpA), perfluorooctanoic acid (PFOA), perfluorononanoic acid (PFNA), perfluorooctane sulfonate (PFOS), and perfluorooctanesulfonamide (PFOSA).

[2] = 19F NMR β-CD:PFOA association constants in the presence and absence of HSA; assay type: binding
Description: The capacity or remediation in a human host as a therapeutic application is illustrated by the competitive binding between Human Serum Albumin (HSA) and β-CD for PFOA. Different spectroscopic techniques were employed to understand the interactions between HSA, PFOA, and β-CD. The association between PFOA and β-CD in the presence of HSA in water was characterized using ^19F NMR experiments. Changes in the ^19F chemical shift of PFOA titrated with β-CD were monitored to compare the host-guest association in the presence and absence of 35 μM HSA. The observed change in chemical shift of each fluorine peak varied differently as a function of β-CD concentration. […] The association constants for fluorine atoms closer to the PFOA carboxylate head group with β-CD are weaker in the presence of HSA, whereas the fluorine atoms towards the end of the alkyl chain (tail) experience a stronger interaction with β-CD in the presence of HSA. The 1:1 β-CD:PFOA association constant decreases in the presence of HSA likely due to the interaction of the carboxylate group of PFOA with HSA that weakens the PFOA association to β-CD.
NMR experiments were performed with a 400 MHz Bruker instrument with a quad probe (operating at 376.498 MHz for ^19F). Hexafluorobenzene was used as the internal standard with a chemical shift of −164.9 ppm.

[3] = system: zebrafish (Danio rerio) embryo; experiment: Zebrafish embryo toxicity assay; assay type: in vivo
Description: To assess the potential of β-CD to attenuate the developmental and lethal effects of PFOA, zebrafish (Danio rerio) embryo are used as a toxicological model. Practical advantages of the zebrafish embryo system include ease of rearing and a high fecundity, as well as small (˜1 mm) and nearly transparent embryos, rapid (≤5-7 day) embryo development, and a fully sequenced genome. As such, the zebrafish embryo has been employed to look at a wide range of environmental contaminants in terms of acute and chronic toxicity. Acute toxicological endpoints (e.g., embryotoxicity, teratogenicity, neurotoxicity) which are readily accessible in the zebrafish embryo model are, furthermore, aligned with the reported health concerns associated with PFOA, and the system has, indeed, been used to evaluate toxicity of PFOA and related perfluorinated alkyl substances.
Perfluorooctanoic acid (PFOA, 96% purity) was purchased from Sigma-Aldrich. β-Cyclodextrin (β-CD, 98% purity) was purchased from Acros Organics. Both chemicals were used without further purification. Stock solutions of PFOA (7.25 mM, i.e., 3000 parts-per-million [ppm]), 1:1 β-CD:PFOA (β-CD: 7.25 mM, PFOA: 7.25 mM), and 2:1 β-CD:PFOA (β-CD: 14.50 mM, PFOA: 7.25 mM) were prepared with deionized water in polypropylene tubes. The solutions were sonicated until dissolution of the solids was achieved. A control solution of deionized water was also stored in a polypropylene tube. Stock solutions were subsequently diluted over a relevant range of concentrations for assessment of zebrafish embryo toxicity.
Adult zebrafish were maintained in 30-L tanks at 28° C. with 14 h:10 h light/dark cycle, and bred (from approximately 10-30 individuals) above 10-L tanks in mesh enclosures. Eggs were collected (from the bottom of tanks) within 1 h of the end of the dark cycle, and following collection and washing, transferred to plates containing E3 medium. Eggs containing dead, or obviously poor quality embryos, were removed. The remaining embryos were used, within ˜2 hour post-fertilization (hpf), for toxicity assays.
Zebrafish Embryo Toxicity Assay Assays were conducted in polypropylene 24-well plates (Evergreen Scientific, Los Angeles, Calif.) with five embryos (4- to 32-cell stage) per replicate, i.e., well (n=4), in E3 medium for a total of 20 zebrafish embryos per treatment/concentration. Embryos were exposed to a range of PFOA concentrations (30, 50, 100, 150, 200, 250 and 300 ppm) alone, and in 1:1 and 2:1 ratios with β-CD, and subsequently observed at 1, 2, 3, 4 and 7 days post-fertilization (dpf) with a dissecting light microscope to assess mortality and relevant developmental toxicity. Exposures and assessments were repeated several times, in preliminary studies, to determine relevant concentration levels for PFOA, and generally confirm results. Lethality was calculated as the concentration corresponding to 50% mortality (LC50); the LC50 values, and their 95% confidence intervals, were calculated via Probit Analysis in SPSS. In addition to lethality, inhibition of embryo development was morphometrically assessed based on the interocular distance between eyes (as a proxy for body size) of 7 dpf embryos (i.e., eleuthero-embryo stage) as measured using Olympus DP2-BSW imaging software. Apparent neurobehavioral effects were additionally measured as the percent of 7-dpf eleuthero-embryos displaying listing (i.e., falling to one side) behavior within a 30 s period (with shaking between each measurement to allow embryos to right themselves). Statistical Analyses
One-way analysis of variance (ANOVA) of the LC50 values, as well as the interocular distance and percent listing at 7 dpf, was performed in GraphPad Prism. The significance level was set at p=0.05.

[4] = target: Human Serum Albumin (HSA) (Homo sapiens, UniProt P02768); experiment: HSA fluorescence (steady state and lifetime): reversal of PFOA binding by β-CD
Sequence of Human Serum Albumin (HSA) (P02768 25-609): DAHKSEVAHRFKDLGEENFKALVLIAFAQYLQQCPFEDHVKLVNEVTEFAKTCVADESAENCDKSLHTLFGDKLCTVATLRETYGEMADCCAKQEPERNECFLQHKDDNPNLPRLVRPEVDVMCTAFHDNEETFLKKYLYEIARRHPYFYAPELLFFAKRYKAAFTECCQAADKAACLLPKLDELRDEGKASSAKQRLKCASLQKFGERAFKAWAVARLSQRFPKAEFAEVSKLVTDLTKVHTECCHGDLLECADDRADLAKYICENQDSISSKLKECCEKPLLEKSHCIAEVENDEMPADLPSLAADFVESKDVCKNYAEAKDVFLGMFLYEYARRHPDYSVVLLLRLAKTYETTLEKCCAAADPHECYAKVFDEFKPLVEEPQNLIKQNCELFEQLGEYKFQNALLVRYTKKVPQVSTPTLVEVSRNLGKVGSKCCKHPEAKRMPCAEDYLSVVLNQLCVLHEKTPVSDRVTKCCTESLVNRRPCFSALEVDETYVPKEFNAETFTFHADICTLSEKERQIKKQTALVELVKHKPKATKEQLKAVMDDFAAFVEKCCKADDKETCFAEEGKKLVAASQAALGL
Protocol: For the fluorescence spectroscopy experiments, stock solutions of PFOA (10 mM and 100 μM), β-CD (5 mM), and HSA (20 μM) were prepared with a 50 mM sodium phosphate buffer (pH 7.4) solution in polypropylene tubes
Steady state emission experiments were performed with a PC1 Fluorometer (ISS Inc, Champaign, Ill.). The excitation wavelength was 295 nm, and the emission spectra were recorded between 305 and 440 nm using 1 nm slit width for both excitation and emission. The emission spectra were corrected for the inner filter effect; however, the inner filter effect was insignificant at the HSA concentrations used in this study. Fluorescence lifetime experiments (frequency-resolved) were performed with a ChronoFD Fluorometer (ISS Inc, Champaign, Ill.). The excitation wavelength was 280 nm and 2,5-diphenyloxazole (PPO) was used as a lifetime reference. For both steady state and fluorescence lifetime experiments, the concentration of HSA was 10 βM. PFOA and β-CD were titrated into the sample at various concentrations.

[5] = β-CD:legacy PFAS; from Wilson and Verrall, Langmuir; cited from earlier work
[6] = Control experiments: interaction of internal standard with cyclodextrins; conditions: 1.44×10−3 M
Protocol: The solution consisted of 50% D2O and 50% DI H2O, adjusted to pH 7 with 0.036 M NaOH. […] Each cyclodextrin (α-, β-, γ-) was added at various stoichiometric ratios and the solution was sonicated until dissolution of the CD was achieved.

[7] = 50 mM Phosphate Buffer (pH 7.4)
[8] = 50 mM Phosphate Buffer (pH 7.4) with 35 μM HSA

## O=C(O)C(F)(F)C(F)(F)C(F)(F)C(F)(F)C(F)(F)C(F)(F)C(F)(F)F [PFOA, perfluorooctanoic acid]
[1]; 1:1 β-CD:PFAS complex
  K1:1 association constant: 5.00 ± 0.10 × 10^5 M^−1
[1]; 2:1 β-CD:PFAS complex
  K2:1 association constant: 1.20 ± 0.50 × 10^3 M^−1
[2]; [7]
  K1:1 β-CD:PFOA: 4.16 ± 0.88 × 10^5 M^−1
  K2:1 β-CD:PFOA: 6.42 ± 1.78 × 10^2 M^−1
[2]; [8]
  K1:1 β-CD:PFOA: 1.67 ± 0.33 × 10^5 M^−1
  K2:1 β-CD:PFOA: 9.09 ± 1.27 × 10^2 M^−1
[3]; 1 dpf, ppm PFOA
  LC50: 47.3±3.6 ppm
[3]; 7 dpf, surviving embryos at sub-lethal concentrations ≤50 ppm PFOA, pooled
  interocular distance: 0.25±0.06 mm
[3]; 7 dpf, ≤50 ppm PFOA, pooled
  percent of surviving embryos listing within a 30 second period: 96±9%
[3]; PFOA concentrations above 100 ppm
  lethality at 24 hpf: all embryos dead
[3]; by 7 dpf, bent spines and edemas
  embryos showing discernible deformities: ~5%
[3]; surviving embryos, hatched by 3 dpf
  hatching rates: unaffected

## OC[C@H]1O[C@@H]2O[C@H]3[C@H](O)[C@@H](O)[C@@H](O[C@H]4[C@H](O)[C@@H](O)[C@@H](O[C@H]5[C@H](O)[C@@H](O)[C@@H](O[C@H]6[C@H](O)[C@@H](O)[C@@H](O[C@H]7[C@H](O)[C@@H](O)[C@@H](O[C@H]8[C@H](O)[C@@H](O)[C@@H](O[C@H]1[C@H](O)[C@H]2O)O[C@@H]8CO)O[C@@H]7CO)O[C@@H]6CO)O[C@@H]5CO)O[C@@H]4CO)O[C@@H]3CO [β-CD, β-Cyclodextrin]
[3]; tested range up to maximum concentration 1645 ppm (1.45 mM) β-CD
  toxicity of β-CD alone: No discernible toxicity
[4]; 10 μM HSA titrated with PFOA, 1:1 and 2:1 β-CD:PFOA ratios
  effect on PFOA binding to HSA, steady state fluorescence: cannot completely reverse the first PFOA binding to HSA
[4]; 10 μM HSA, 500 μM PFOA, 5:1 β-CD:PFOA ratio (2500 μM β-CD)
  fluorescence intensity and λmax of HSA with PFOA: return to the values observed for HSA in the absence of PFOA
[4]; 10 μM HSA, 50:1 PFOA:HSA, 5:1 β-CD:PFOA ratio
  fluorescence lifetime τ and α values of HSA with PFOA: identical to those determined for HSA in the absence of PFOA

## O=C(O)C(F)(F)C(F)(F)C(F)(F)C(F)(F)C(F)(F)F [PFHxA, perfluorohexanoic acid]
[5]
  Legacy PFAS Kassoc: 2.35 +/− 0.46 × 10^4 M^−1

## Fc1c(F)c(F)c(F)c(F)c1F [hexafluorobenzene, Hexafluorobenzene]
[6]
  interaction with cyclodextrins: does not significantly interact with cyclodextrins
